These results are taken from patent publication US20090209522A1, “Heterocyclic Non-Peptide GNRH Antagonists” (priority 2005, published 2009).

One data set has as its target T1, human GnRH receptors (Homo sapiens, UniProt P30968).
T1 construct: expressed in transfected cells; host or cells: CHO-K1
T1 sequence (P30968 1-328): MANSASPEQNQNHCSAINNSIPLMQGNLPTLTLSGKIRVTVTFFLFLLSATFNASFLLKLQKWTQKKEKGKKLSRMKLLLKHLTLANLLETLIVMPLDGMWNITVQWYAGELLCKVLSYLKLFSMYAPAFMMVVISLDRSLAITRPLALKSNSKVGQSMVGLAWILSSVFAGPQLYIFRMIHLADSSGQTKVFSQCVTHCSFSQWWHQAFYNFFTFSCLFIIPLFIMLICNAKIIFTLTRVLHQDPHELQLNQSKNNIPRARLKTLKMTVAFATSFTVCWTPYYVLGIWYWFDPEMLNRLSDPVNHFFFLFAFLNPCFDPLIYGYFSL
Briefly: Human GnRH receptor functional assay (intracellular calcium release). The following applies: CHO-K1 cells expressing human GnRH receptors; block of GnRH (EC80)-induced intracellular calcium release; 20 minutes pre-incubation. It is filed as cell-based. On the procedure: Human GnRH Receptor Functional Assay
GnRH-receptor antagonists may be functionally assessed by measurement of change in intracellular calcium levels induced by Gαq mediated increase in IP3 levels. The ability of compounds to block the intracellular release of calcium by GnRH in CHO-K1 cells expressing human GnRH receptors is determined as a measure of the compound's antagonist activity in vitro. Approximately 30,000 cells per assay well (half well 96 well assay plate—Corning) are seeded in normal culture medium. Twenty four hours after seeding the cells are loaded with a calcium sensitive fluorescent dye by replacing the culture medium with assay buffer (1× Hanks buffered saline, 25 mM HEPES, 0.1% w/v fatty acid free BSA, pH7.4) containing 2.5 mM probenecid and 1× Calcium Plus reagent (Molecular) Devices. Cells are incubated at 37° C. for 1 hour to allow for dye uptake. To test for antagonist activity, compounds at a concentration range between 0.1 nM-3.2 μM are added to the assay wells and allowed to incubate 20 minutes prior to stimulation with GnRH. After incubation with test compounds the assay plate is placed in a Flexstation II (Molecular Devices) and GnRH is added at the determined EC80 concentration (final). Ligand-dependent changes in intracellular calcium levels are determined by measuring changes in fluorescence of the dye at […] following excitation at 485 nm. Percentage inhibition curves are plotted using 4-parameter fit algorithm and IC50 values calculated for each compound.
(Calcium assays in cells follow changes in intracellular calcium, usually with a dye or a luminescent sensor.)

Molecules are shown by their SMILES.

`COc1nc(NCCCN2CCOCC2)nc(OC)c1NC(=O)c1coc(Oc2cccc(C(C)(C)C)c2)n1` [Example 1, 2-(3-tert-butylphenoxy)-N-(4,6-dimethoxy-2-(3-morpholinopropylamino)pyrimidin-5-yl)oxazole-4-carboxamide] registered a melting point of 85 °C. Compound `COc1nc(NCCCN2CCOCC2)nc(OC)c1NC(=O)c1csc(Oc2cccc(C(C)(C)C)c2)n1` [Example 2, 2-(3-tert-butylphenoxy)-N-(4,6-dimethoxy-2-(3-morpholinopropylamino)pyrimidin-5-yl)thiazole-4-carboxamide] returned a melting point of 68 °C. Moreover, the IC50 at human GnRH receptors was 485 nM.

Consider `COc1nc(NCCN(C)C)nc(OC)c1NC(=O)c1csc(Oc2cc(C(C)(C)C)ccc2C)n1` [Example 5, 2-(5-tert-Butyl-2-methylhenoxy)-N-(2-(2-(dimethylamino)ethylamino)-4,6-dimethoxypyrimidin-5-yl)thiazole-4-carboxamide], for which, at human GnRH receptors, the concentration for half-maximal inhibition (IC50) was 193 nM.

As for `COc1cc2c(cc1Oc1nc(C(=O)Nc3c(OC)nc(NCCNC(C)C)nc3OC)cs1)C(C)(C)CC2` [Example 24, N-(2-(2-(Isopropylamino)ethylamino)-4,6-dimethoxypyrimidin-5-yl)-2-(6-methoxy-3,3-dimethyl-2,3-dihydro-1H-inden-5-yloxy)thiazole-4-carboxamide], at human GnRH receptors, the IC50 amounted to 4 nM.

Usually melting point stands for the temperature, or range, at which the solid turns liquid. By IC50 is commonly meant the concentration that gives 50% inhibition.
